System: not listed separately
Test: Antitumor activity test, sulfonyl rhodamine B (SRB) method
Type: cell-based, human
Conditions: compound concentration 10^−5 M, A-549 cells cultured 72 hours, OD560
Protocol: (§1) Antitumor activity test: Sulfonyl rhodamine B (SRB) method was used to determine the in vitro anti-tumor activity of A-549 […] cancer cells. A-549 human […] cancer cells in logarithmic growth were inoculated into a 96 well microculture plate with the amount of 90 μL/well. 24 hours later, the solutions respectively containing the compounds 1a, 1b, 1c, 1d, 1e, 1f, 1g, 1h, and 1i of the disclosure were added to the wells with each 10 μL/well, and three wells for each concentration. A cell-free zero adjustment hole was also provided. The concentrations of the compounds 1a, 1b, 1c, 1d, 1e, 1f, 1g, 1h, and 1i in corresponding solution were all 10^−5 M. The tumor cells were cultured at 37° C. under 5% CO2 for 72 hours. The culture medium was discarded, and 100 μL/well of 10% TCA was added to the cells for fixing at 4° C. for 1 hour. The cells were washed three times with distilled water, and dried naturally. 4 mg/mL SRB (Sigma) staining solution of 100 μL/well was added for staining at room temperature for 15 minutes, washed three times with 1% acetic acid aqueous solution, and dried naturally. 100 μL/well of 10 mM Tris base aqueous solution was further added. Then, the optical density (OD560) value was measured using an enzyme-linked immunosorbent assay at a wavelength of 560 nm. The inhibition rate of the tested compounds on tumor cell growth was calculated according to the formula: (control group OD value-administration group OD value)/control group OD value×100%.

In order of rising “Inhibitory rates on tumor cell growth (%)” value:
1. 3,7,9-trimethyl-8-(2-methoxycarbonyl ethyl)-2-(2-p-tolylene sulfonyl group ethyl)-dipyrrolidone [Compound 1h]  11.7%
2. 3,7,9-trimethyl-8-(2-carboxyethyl) -2-(2-p-toluenesulfoethyl)-Dipyrrolidene-1-one [Compound 1f]  23.5%
3. COC(=O)CCc1c(C)[nH]c(C=C2NC(=O)C(CCS(=O)(=O)c3ccc(C)cc3)=C2C)c1C [Compound 1i, 3,7,9-trimethyl-8-(2-methoxycarbonylethyl)-2-(2-nenenebap-toluenesulfonylethyl)-dipyrrolomethen-1-one]  28.4%
4. COC(=O)CCc1c(C(=O)OC(C)(C)C)[nH]c(C=C2NC(=O)C(CCS(=O)(=O)c3ccc(C)cc3)=C2C)c1C [Compound 1c, 9-tert-butyloxycarbonyl-3,7-dimethyl-8-(2-methoxycarbonylethyl)-2-(2-nenenebap-toluenesulfonylethyl)-dipyrrolomethen-1-one]  34.4%
5. 3,7-dimethyl-8-(2-ethoxycarbonylethyl) -2-(2-p-toluenesulfoethyl)-dipyrrolidene-1-one [Compound 1g]  35.6%
6. 9-tert-butyloxycarbonyl-3,7-dimethyl-8-(2-methoxycarbonyl ethyl)-2-(2-p-tolylene sulfonyl group ethyl)-dipyrrolomethen-1-one [Compound 1b]  57.0%
7. 9-tert butoxycarbonyl-2,7-dimethyl-8-(2-methoxycarbonylethyl)-3-(2-p-toluenesulfoethyl)-dipyrrolidene-1-one [Compound 1a]  72.3%

System: A-549 human breast cancer cells
Test: as above
Type: cell-based
Conditions: Homo sapiens, A549, compound concentration 10^−5 M, A-549 cells cultured 72 hours, OD560, read-out: Inhibitory rates on tumor cell growth (%)
Protocol: as §1

In order of falling inhibition at 10 µM:
1. COC(=O)CCc1c(C)[nH]c(/C=C2\NC(=O)C(CC[S+]([O-])c3ccc(C)cc3)=C2C)c1C (stereo not drawn) [Compound 1e, 3,7,9-trimethyl-8-(2-methoxycarbonylethyl)-2-(2-p-tolylenesulfonylgroupethyl)-dipyrrolidone]  63.4%
2. COC(=O)CCc1c(C)[nH]c(/C=C2\NC(=O)C(CCSc3ccc(C)cc3)=C2C)c1C [Compound 1d, 3,7,9-trimethyl-8-(2-methoxycarbonylethyl) -2-(2-p-toluenesulfoethyl)-dipyrrolidene-1-one]  37.8%
